Read-outs that look alike come from different tables or passages of the source.
Experiments:
[1] = test system: 700022-resistant line of L. mexicana (r22) axenic amastigotes; assay: EC50 in 700022-resistant L. mexicana (r22) axenic amastigotes; format: cell-based, Leishmania mexicana; conditions: for EC50: Leishmania mexicana, read-out: r22 28 weeks EC50, r22 after 28 weeks of 700022 selection pressure; for r22 28 weeks RI (resistance index, EC50 in r22/EC50 in WT): 28 weeks of 700022 selection pressure
Procedure: A 700022-resistant line of L. mexicana (r22) was generated using a previously reported method (Figure S3). […] All leishmanicidal sterols identified were assayed against r22 after 8 weeks of 700022 pressure and cross-resistance was found against all four compounds, each with a similar resistance index of between 4–5 (Figure 6c). Following 28 weeks of selection, the morphology of the r22 promastigotes was compared to that of WT (Figure 6d). […] The body area of both promastigotes and amastigotes was also assessed, noting a small (c 20%) decrease in the body area of r22 parasites compared to WT strains (Figure S3).
Figure 6 Comparison between wildtype and 700022-resistant (r22) L. mexicana cell lines. Log concentration versus normalised (compared to untreated control) growth curves for wildtype (WT) and corresponding 700022-selected (r22) L. mexicana (a) promastigotes and (b) axenic amastigotes. Error bars represent upper and lower limits of the StDev (n = 9). […] The resistance index (EC50 in r22/EC50 in WT) are shown for each compound. (d) Scanning electron micrographs of WT and r22 promastigotes illustrating the shortened flagellum in r22 parasites. (e) Analysis of flagellum length in WT and r22 promastigotes (n = 287 of each strain) reported using a box and whisker plot (boxes represents the 25–75th percent distribution with the mean as a horizontal line, whiskers represent the distribution of all values) with a statistically significant difference (Mann–Whitney U test, p-value < 2.2 × 10^−16). […] Error bars represent upper and lower limits of the StDev (n = 9). […] The resistance index (EC50 in r22/EC50 in WT) are shown for each compound. TEXT PRINTED IN THE PICTURE: (c) 700022: 4.1 | (c) 700107: 4.1 | (c) 700136: 5.3 | (c) 700240: 5.3 | (f) 700022: 42.1 | (f) Milt: 17.9 | (f) Pent: 0.75 | (f) AmpB: 1.22 DOUBTS OF THE COPYIST ABOUT THIS PICTURE: Panels c and f: the numbers printed above the bar pairs have no measure or unit printed with them in the picture.
L. mexicana parasites were grown in increasing concentrations of 700022 in a stepwise manner, as previously described. […] A dose response assay of the newly selected promastigotes was completed as stated above, with the exception of the seeding density of 1 × 10^5 cells/mL. At this point, the drug pressure was increased to the concentration of the new EC50 value.

[2] = test system: L. mexicana axenic amastigotes; assay: Initial screen, L. mexicana axenic amastigotes, Alamar Blue; format: cell-based, Leishmania mexicana; conditions: for decrease of L. mexicana survival: 2 μM, 72 h; for activity at 2 µM: Leishmania mexicana
Procedure: (§1) 634 compounds from the PhytoQuest Phytopure temperate plant natural product library were screened for growth inhibitory activity against L. mexicana axenic amastigotes, T. brucei bloodstream form, intraerythrocytic asexual P. falciparum (at 2 μM) and T. evansi bloodstream form parasites (at 1 μM). […] Our initial hits were defined as reducing growth of the parasite by ≥50%. […]
(§2) The PhytoQuest Phytopure library is a commercially available collection of purified compounds isolated predominantly from temperate zone plants, with structures confirmed by NMR and mass spectrometry. The library was provided as 634 non-polar compounds (1 mg/mL in DMSO). Initial screening was performed in a 96-well plate with 200 μL of parasite culture. The initial screen used each compound at a final concentration of 2 μM for L. mexicana axenic amastigotes, T. brucei and P. falciparum, and at 1 μM for T. evansi. L. mexicana axenic amastigotes were plated at 1 × 10^6 cells/mL, incubated for 72 h, and the Alamar Blue assay was used to assess parasite growth. Each compound was tested in triplicate, with two biological replicates (n = 6). T. brucei and T. evansi were plated at 1×10^5 cells/mL for 48 h, and the Alamar Blue assay was used to assess parasite growth. Each compound was tested in triplicate with two biological replicates (n = 6). Intraerythrocytic P. falciparum in the trophozoite stage were seeded at 0.5% parasitaemia and 2% haematocrit for 48 h, and the Malaria SYBR-Green I fluorescence assay was used to assess parasite growth. Each compound was tested in duplicate with two biological replicates (n = 4). Negative controls comprised an equivalent volume of DMSO (equivalent of 1% v/v) to normalise the growth data. Data points >100% growth and <0% growth were tabulated as 100% and 0%, respectively. Some compounds were not tested in all parasite lines as there was insufficient material remaining.

[3] = test system: T. brucei bloodstream form; assay: Initial screen, T. brucei bloodstream form, Alamar Blue; format: cell-based, Trypanosoma brucei brucei; conditions: initial screen; for activity at 2 µM: Trypanosoma brucei
Procedure: (§3) 634 compounds from the PhytoQuest Phytopure temperate plant natural product library were screened for growth inhibitory activity against L. mexicana axenic amastigotes, T. brucei bloodstream form, intraerythrocytic asexual P. falciparum (at 2 μM) and T. evansi bloodstream form parasites (at 1 μM). […] Our initial hits were defined as reducing growth of the parasite by ≥50%.
(§4) L. mexicana strain MNYC/BZ/62/M379 and L. donovani strain LdBOB (a clonal line from strain MHOM/SD/62/1S-CL2) were maintained in vitro in the procyclic promastigote stage. Parasites were cultivated at 26 °C in Schneider’s medium (Gibco) pH 7.0 containing 10% FBS, 100 U/mL penicillin (Lonza) and 100 μg/mL streptomycin (Lonza) as previously described. Differentiation into axenic amastigotes was performed as described previously. Briefly, axenic amastigotes were cultivated at 32 °C in Schneider’s medium pH 5.5 containing 10% FBS, 100 U/mL penicillin (Lonza) and 100 μg/mL streptomycin (Lonza). Bloodstream form T. brucei brucei strain Lister 427 and T. evansi strain Antat 3/3 [59] were maintained in vitro at 37 °C with 5% (v/v) CO2 in HMI-11 medium supplemented with 10% FBS, as described elsewhere. Intraerythrocytic cultures of P. falciparum Dd2^Luc strain [62] were maintained at 37 °C in a 1% O2:3% CO2:96% N2 atmosphere in RPMI-1640 containing 37.5 mM HEPES, 5 mM NaOH, 10 mM D-glucose, 2 mM L-glutamine, 100 μM hypoxanthine, […] gentamicin sulfate, 5% human serum and 5% albumax-II and 2% haematocrit erythrocytes. When required, cultures were synchronised to ring stages using the sorbitol lysis method. Preliminary cytotoxicity screening was assessed using HepG2 cells. These cells were maintained in vitro at 37 °C with 5% (v/v) CO2 in DMEM (Sigma) pH 7 supplemented with 10% FBS, 100 U/mL penicillin (Lonza) and 100 μg/mL streptomycin (Lonza), as previously described. The human monocyte cell line THP-1 [68] was maintained in vitro by culturing at 37 °C with 5% (v/v) CO2 in complete RPMI medium (Dutch modified RPMI-1640 (Gibco) containing 10% FBS and 2 mM L-glutamine (Gibco)). Differentiation of THP-1 cells into macrophages was performed by seeding 2.5 × 10^5 cells/mL in complete RPMI media, supplemented with 20 ng/mL phorbol 12-myristate 13-acetate (PMA), followed by incubation at 37 °C with 5% (v/v) CO2 for 24 h.
as §2, with “The” for “The PhytoQuest Phytopure library is a commercially available collection of purified compounds isolated predominantly from temperate zone plants, with structures confirmed by NMR and mass spectrometry. The”

[4] = test system: T. evansi bloodstream form; assay: Initial screen, T. evansi bloodstream form, Alamar Blue; format: cell-based, Trypanosoma evansi; conditions: Trypanosoma evansi; for activity at 1 µM: initial screen; for inhibition of growth at 1 µM: read-out: initial hit T.e
Procedure: as §3, §4
as §2, with “The” for “The PhytoQuest Phytopure library is a commercially available collection of purified compounds isolated predominantly from temperate zone plants, with structures confirmed by NMR and mass spectrometry. The”

[5] = test system: P. falciparum Dd2Luc intraerythrocytic trophozoites; assay: Initial screen, intraerythrocytic P. falciparum, Malaria SYBR-Green I fluorescence assay; format: cell-based, Plasmodium falciparum; conditions: for activity at 2 µM: Plasmodium falciparum
Procedure: as §1, §2

T. evansi = assay: Concentration-response EC50, T. evansi; format: cell-based; conditions: Trypanosoma evansi, 48 h, read-out: T. evansi EC50
Source text: (§5) Initial hits from the parasite panel screen were taken forward in log concentration versus normalised response assays to estimate the half maximal effective concentration (EC50) in hit species as well as the half maximal cytotoxic concentrations (CC50) in the human hepatoma cell line HepG2 as a preliminary test for selectivity. Using CC50/EC50 to define the selectivity index (SI), the selectivity for each compound in a defined species compared to a human cell line was estimated and compared to the EC50 (Figure 3).
(§6) EC50 values were determined by serial two-fold dilution of each compound in 96 well plates. Culture conditions and viability assays were as stated for the initial screen, with some exceptions. L. mexicana and L. donovani axenic amastigotes were seeded at 2 × 10^6 cell/s mL, T. brucei and T. evansi were seeded at 2 × 10^5 cells/mL. For cytotoxicity studies, HepG2 cells were seeded at 1 × 10^5 cells/mL, incubated for 48 h and viability was assessed using the Alamar Blue assay [66, 67]. […] Normalised growth and viability data (compared to untreated controls) were plotted against Log10 concentration to estimate EC50 in GraphPad (Prism v6).

[6] = test system: L. mexicana axenic amastigotes; assay: Concentration-response EC50, L. mexicana axenic amastigotes (WT); format: cell-based, Leishmania mexicana; conditions: Leishmania mexicana
Source text: as §5, §6

[7] = read-out: % growth L. mexicana, mean % growth compared to a normalised control with same concentration of DMSO solvent, initial screen
[8] = mean % growth compared to a normalised control with same concentration of DMSO solvent, read-out: % growth T. evansi
[9] = 48 h, read-out: %growth P. falciparum, mean % growth compared to a normalised control with same concentration of DMSO solvent, initial screen
[10] = mean % growth compared to a normalised control with same concentration of DMSO solvent, initial screen

`C[C@@H]1[C@H](O)[C@@H](C)/C=C/C=C/C=C/C=C/C=C/C=C/C=C/[C@H](O[C@@H]2O[C@H](C)[C@@H](O)[C@H](N)[C@@H]2O)C[C@@H]2O[C@](O)(C[C@@H](O)C[C@@H](O)[C@H](O)CC[C@@H](O)C[C@@H](O)CC(=O)O[C@H]1C)C[C@H](O)[C@H]2C(=O)O` [Amphotericin B, reference compound] gave an EC50 [1] of 0.28 µM.
`CC1=CC(CC(C)C2CCC3(C)C4=CCC5C(C)(C)C(=O)CCC5(C)C4CCC23C)OC1=O` (stereo not shown) [Compound 700016] was tested, and the “decrease of L. mexicana survival” value [2] was “more than 50%”, the activity at 2 µM [2, 7] was 47.1% and the activity at 2 µM ([3]; mean % growth compared to a normalised control with same concentration of DMSO solvent, read-out: % growth T. b. brucei) was 75.7%. The activity at 1 µM [4, 8] was 40.5%, the inhibition of growth at 1 µM ([4]; 1 μM, x = initial hit) was > 50% and the activity at 2 µM [5, 9] was 104%. For the same molecule, the EC50 (T. evansi; bloodstream form) was > 3 µM.
For `CC(=O)OC1C(O)C(C)OC(OC2C(OC(=O)C3CC[C@@H]4[C@H](C3)OC3(CC(OC(=O)/C=C/c5ccccc5)[C@@H](C)CO3)C43CO3)OC(CO)C(O)C2OC(C)=O)C1O` (stereo partly shown) [Compound 700063], the “decrease of L. mexicana survival” value [2] was ~70%, the “% growth L. mexicana” value [2, 10] was 70.5% and the “% growth T. b. brucei” value ([3]; mean % growth compared to a normalised control with same concentration of DMSO solvent) was 95.6%. For the same molecule, the activity at 1 µM ([4]; read-out: % growth T. evansi, mean % growth compared to a normalised control with same concentration of DMSO solvent) was 44.5%, the inhibition of growth at 1 µM [4] was > 50% and the “activity against P. falciparum in screen” value ([5]; 2 μM) was “neither 700014 or 700063 showed activity against P. falciparum”. For the same molecule, the “%growth P. falciparum” value [5, 10] was 104.8% and the EC50 (T. evansi) was > 10 µM.
In the case of `CC(C)=CCc1c(O)cc2oc(-c3ccc(O)c(O)c3)c(O)c(=O)c2c1O` [Compound 700326], the activity at 2 µM [2, 7] is reported as 27%, the activity at 1 µM [4, 8] is reported as 34.7% and the inhibition of growth at 1 µM ([4]; 1 μM, x = initial hit) is reported as > 50%. The activity at 2 µM [5, 9] was 63.1% and the EC50 (T. evansi; bloodstream form) was 1.8 µM.
Molecule `CC(C)c1cc(CCC2C(=O)CCCC2(C)C)c(O)cc1O` (stereo not shown) [Compound 700454] has an activity at 2 µM ([2]; read-out: mean % growth, L. mexicana, initial screen, compared to a normalised control with same concentration of DMSO solvent) of 47.9%, an activity at 2 µM ([3]; compared to a normalised control with same concentration of DMSO solvent, read-out: mean % growth, T. b. brucei) of 77.3% and an activity at 1 µM ([4]; compared to a normalised control with same concentration of DMSO solvent, read-out: mean % growth, T. evansi) of 43.7%. The inhibition of growth at 1 µM ([4]; 1 μM, x = initial hit) was > 50%, the “reduction of P. falciparum growth” value ([5]; 2 μM, 48 h, Dd2Luc) was 5% and the activity at 2 µM ([5]; 48 h, read-out: mean % growth, P. falciparum, initial screen, compared to a normalised control with same concentration of DMSO solvent) was 95.4%. The EC50 (T. evansi; bloodstream form) was 3.3 µM.
For `CCCCCCCCCCCCCCCCOP(=O)([O-])OCC[N+](C)(C)C` [Miltefosine, reference compound], the EC50 ([6]; read-out: WT EC50, L. mexicana WT axenic amastigotes) was 1.1 µM, the “r22 28 weeks RI (resistance index, EC50 in r22/EC50 in WT)” value [1] was 17.9 and the EC50 [1] was 20 µM.
With `N=C(N)c1ccc(OCCCCCOc2ccc(C(=N)N)cc2)cc1` [Pentamidine, reference compound] the EC50 ([6]; L. mexicana WT axenic amastigotes, read-out: WT EC50) was 6.8 µM, the “r22 28 weeks RI (resistance index, EC50 in r22/EC50 in WT)” value [1] was 0.75 and the EC50 [1] was 5.1 µM.

From paper PMC7998250, “Temperate Zone Plant Natural Products—A Novel Resource for Activity against Tropical Parasitic Diseases” (Pharmaceuticals, 2021)
